Laboratory results published in US20110230497A1, “BIOLOGICALLY ACTIVE AMIDES” (H. Lundbeck A/S, priority 2008, published 2011).

Legend:
NPY Y5 receptor [1] = biological target: T1, NPY Y5 receptor (Homo sapiens, UniProt Q15761); test: NPY Y5-dependent inhibition of forskolin-stimulated cAMP accumulation; assay type: cell-based; set-up: expressed in transfected cells; conditions: effect on agonist (NPY) activity, cAMP HTRF
T1 sequence (Q15761 1-445): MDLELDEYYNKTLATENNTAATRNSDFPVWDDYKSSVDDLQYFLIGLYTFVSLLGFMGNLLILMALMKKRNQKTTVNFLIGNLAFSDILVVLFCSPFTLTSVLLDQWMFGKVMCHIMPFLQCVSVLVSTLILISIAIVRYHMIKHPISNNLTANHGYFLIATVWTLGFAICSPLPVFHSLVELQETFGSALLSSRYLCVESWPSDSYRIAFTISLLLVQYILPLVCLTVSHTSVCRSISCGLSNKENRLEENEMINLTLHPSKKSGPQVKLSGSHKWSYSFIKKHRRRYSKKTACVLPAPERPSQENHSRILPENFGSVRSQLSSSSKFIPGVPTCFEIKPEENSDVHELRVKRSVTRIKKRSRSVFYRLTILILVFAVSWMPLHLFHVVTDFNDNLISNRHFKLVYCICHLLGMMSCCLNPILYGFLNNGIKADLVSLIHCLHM
Procedure: Stably transfected cells were seeded into 96-well microtiter plates and cultured until confluent. To reduce the potential for receptor desensitization, the serum component of the media was reduced to 1.5% for 4 to 16 hours before the assay. Cells were washed in […], or HBS (150 mM NaCl, 20 mM HEPES, 1 mM CaCl2, 5 mM KCl, 1 mM MgCl2, and 10 mM glucose) supplemented with 0.1% bovine serum albumin plus 100 uM IBMX. Test compounds were diluted to desired concentrations with assay buffer in the presence of 10% DMSO, then transferred to the cell plate and allowed to incubate for 20 min at 37° C. in 5% CO2 (final DMSO=1%). Cells were then stimulated with NPY (up to 10 uM) for a period of 5 min, followed by forskolin (10 uM) for another 5 min. The assay was then terminated and intracellular cAMP was quantified by with highthroughput time-resolved fluorometry (HTRF kit from CisBio, Bedford, Mass.). The effect of the test compound on agonist (NPY) activity were analyzed using nonlinear regression and statistical techniques available in the GraphPAD Prism package (San Diego, Calif.).

NPY Y5 receptor [2] = biological target: T1, NPY Y5 receptor; test: Radioligand (125I-PYY) binding to membrane suspensions, cloned human NPY Y5 receptor; set-up: expressed in transfected cells; host or cells: LM(tk-) cells (typically); conditions: 125I-PYY competition binding, membranes of transfected cells; read-out: Ki (nM), binding affinity of selected compounds
Procedure: The pharmacological properties of the compounds of the present invention were evaluated at the cloned human NPY Y5 receptor using the protocols disclosed in U.S. Pat. No. 6,124,331, the contents of which are hereby incorporated by reference, or in an assay as similarly described therein for NPY Y5 binding activity. The procedures for cell culture, transient transfection and membrane harvest, which are well known in the art, are described therein
Briefly, membrane suspensions from transfected cells (typically expressed in LM(tk-) cells) and ^125I-PYY radioligand (PerkinElmer, Waltham, Mass.) were diluted in binding buffer supplemented with 0.1% bovine serum albumin to yield an optimal membrane protein concentration so that ^125I-PYY bound by membranes in the assay was less than 10% of ^125I-PYY delivered to the sample (100,000 dpm/sample=0.08 nM for competition binding assays). Test compounds were diluted to desired concentrations with supplemented binding buffer in the presence of 30% DMSO. The binding assay was performed in 96-well polypropylene microtiter plates by mixing ^125I-PYY, test compound (25 μL), and finally, membrane suspensions (200 μL). Final DMSO=3%. Samples were incubated in at room temperature for about 120 min. Incubations were terminated by filtration over Whatman GF/C filters (pre-coated with 1% polyethyleneimine and air-dried before use), followed by washing with ice-cold binding buffer. Filter-trapped membranes were impregnated with MeltiLex solid scintillant (Wallac, Turku, Finland) and counted for ^125I-PYY in a Wallac MicroBeta Trilux. Non-specific binding was defined by 1000 nM porcine NPY. Specific binding was typically 80%; most non-specific binding was associated with the filter. Binding data were analyzed using nonlinear regression and statistical techniques available in the GraphPAD Prism package (San Diego, Calif.).

Row | Compound | function at the NPY Y5 receptor (NPY Y5 receptor [1]) | Ki (NPY Y5 receptor [2]) [nM]
1 | CC(=O)N1CCC(CC(=O)Nc2ccc(-c3cc(F)cc(F)c3)cn2)CC1 [Example 2a, 2-(1-Acetyl-piperidin-4-yl)-N-[5-(3,5-difluoro-phenyl)-pyridin-2-yl]-acetamide] | antagonists | 46
2 | CS(=O)(=O)N1CCC(CC(=O)Nc2ccc(-c3cc(F)cc(F)c3)nc2)CC1 [Example 2aj, N-[6-(3,5-Difluoro-phenyl)-pyridin-3-yl]-2-(1-methanesulfonyl-piperidin-4-yl)-acetamide] |  | 28
3 | CC(=O)N1CCN(CC(=O)Nc2ccc(-c3cc(F)cc(F)c3)cn2)C[C@@H]1C [Example 1e, 2-((S)-4-Acetyl-3-methyl-piperazin-1-yl)-N-[5-(3,5-difluoro-phenyl)-pyridin-2-yl]-acetamide] |  | 120
4 | O=C(C[C@H]1CCN2C(=O)OC[C@H]2C1)Nc1ccn(-c2ccc(Cl)cc2F)n1 [Example 3cc, N-[1-(4-Chloro-2-fluoro-phenyl)-1H-pyrazol-3-yl]-2-((7S,8aR)-3-oxo-hexahydro-oxazolo[3,4-a]pyridin-7-yl)-acetamide] |  | 8
5 | O=C(C[C@H]1CCN2C(=O)OC[C@H]2C1)Nc1cc(-c2cccc(C(F)(F)F)c2)no1 [Example 3hh, 2-((7S,8aR)-3-oxo-hexahydro-oxazolo[3,4-a]pyridin-7-yl)-N-[3-(3-trifluoromethyl-phenyl)-isoxazol-5-yl]-acetamide] |  | 39
6 | CC(=O)N1CCN(CC(=O)Nc2ccc(-c3cc(F)cc(F)c3)cn2)CC1 [Example 1a, 2-(4-Acetyl-piperazin-1-yl)-N-[5-(3,5-difluoro-phenyl)-pyridin-2-yl]-acetamide] |  | 220
7 | CC1(C)OC(=O)N2CCC(CC(=O)Nc3ccn(-c4ccccc4F)n3)CC21 (centres unmarked) [Example 3i, 2-(1,1-Dimethyl-3-oxo-hexahydro-oxazolo[3,4-a]pyridin-7-yl)-N-[1-(2-fluoro-phenyl)-1H-pyrazol-3-yl]-acetamide] |  | 50
8 | O=C(C[C@H]1CCN2C(=O)OC[C@H]2C1)Nc1ccc(-c2cc(F)cc(F)c2)cn1 [Example 3o, N-[5-(3,5-Difluoro-phenyl)-pyridin-2-yl]-2-((7S,8aR)-3-oxo-hexahydro-oxazolo[3,4-a]pyridin-7-yl)-acetamide] |  | 17
9 | O=C(CC1CCN2C(=O)OCC2C1)Nc1cnc(-c2cc(F)cc(F)c2)cn1 (centres unmarked) [Example 3l, N-[5-(3,5-Difluoro-phenyl)-pyrazin-2-yl]-2-(3-oxo-hexahydro-oxazolo[3,4-a]pyridin-7-yl)-acetamide] |  | 25
10 | O=C(C[C@H]1CCN2C(=O)CC[C@H]2C1)Nc1ccc(-c2cc(F)cc(F)c2)cn1 [Example 3a] |  | 36
11 | CC(=O)N1CCC(C(C)(C)C(=O)Nc2ccc(-c3cc(F)cc(F)c3)cn2)CC1 [Example 4a, 2-(1-Acetyl-piperidin-4-yl)-N-[5-(3,5-difluoro-phenyl)-pyridin-2-yl]-isobutyramide] | antagonists | 66

Now from value to molecule:

Row | function at the NPY Y5 receptor (NPY Y5 receptor [1]) | Ki (NPY Y5 receptor [2]) [nM] | Compound
12 |  | 570 | Cn1nccc1C(=O)N1CCC(C(C)(C)C(=O)Nc2ccc(-c3cc(F)cc(F)c3)cn2)CC1 [Example 5q, N-[5-(3,5-Difluoro-phenyl)-pyridin-2-yl]-2-[1-(2-methyl-2H-pyrazole-3-carbonyl)-piperidin-4-yl]-isobutyramide]
13 |  | 120 | CC(=O)N1CCC(CC(=O)Nc2ccc(-c3ccccc3)cc2)CC1 [Example 5a, 2-(1-Acetyl-piperidin-4-yl)-N-biphenyl-4-yl-acetamide]
14 |  | 14 | O=C(c1ccccn1)N1CCC(C2(C(=O)Nc3ccc(-c4cc(F)cc(F)c4)cc3)CC2)CC1 [Example 5m]
15 |  | 2.7 | O=C(C1CCC1)N1CCC(C2(C(=O)Nc3ccc(-c4cc(F)cc(F)c4)cc3)CC2)CC1 [Example 5j]
